Assay results published in patent EP0192317A1, “Homocarnosine or acylhomocarnosine salts” (HAMARI YAKUHIN KOGYO KABUSHIKI KAISHA also known as HAMARI …, priority 1985, dated 1986).

Experiments:
[1] = test system: Water-immersion stress ulcer; test: Water-immersion stress ulcer; assay type: in vivo, Male JCI-SD strain rats; conditions: for Ulcer Index (mm): 400 mg/kg orally 30 minutes before 7 hours immersion in 23°C water, sum of the lengths of the lesions in the body of the stomach; for Inhibition (%): 400 mg/kg orally, inhibition of water-immersion stress ulcer versus No drug
Protocol: After a fasting period of 24 hours, 400 mg/kg of each test compound was orally administered to each animal, and after 30 minutes, the animal was immobilized in a stress cage and was immersed in 23°C water down to the level of the thorax for 7 hours. After this stress loading, the rats was exsanguinated by decapitation and the stomach was excised and fixed in 1% formalin for 15 minutes. Then, an incision was made from the pyrolus along the greater curvature and the lengths of the lesions formed in the body of the stomach were measured using a dissecting microscope (with a scale graduated in 1/100 cm). The sum of the lengths was used as the ulcer index.

[2] = test system: Pyrolic ligation-induced ulcer; test: Pyrolic ligation-induced ulcer (Shay method); assay type: in vivo, Male Wistar strains rats; conditions: for Inhibition (%): 300 mg/kg intraduodenally immediately after ligation, ulcer in the fore-stomach 13 hours after administration
Protocol: (b) Pyrolic ligation-induced ulcer
Male Wistar strains rats weighing about 300 g were deprived of food for 20 hours, with provision against fecal feeding, and used in groups of 8 animals. The pyrolus of each animal was ligated under ether anesthesia according to the method described by Shay et al. [H.G. Shay, S.A. Komarow, S.S. Felds, D. Meranze, M. Gruenstein, and H. Siplet, Gastroenterology, 5, 43 (1945)], and 300 mg/kg of each test compound was immediately administered intraduodenally. The incision was sutured and 13 hours after drug administration the rat was sacrified by cervical dislocation. The stomach was excised, slightly inflated by an injection of 1% formalin solution, immersed in the same solution for 15 minutes to fix the gastric wall, and then opened along the greater curvature. The ulcer in the fore-stomach was measured under a dissecting microscope .to calculate the ulcer index and the efficacy of the drug was expressed in terms of percent ulcer index.

[3] = test system: wound; test: Wound healing-promoting activity (tension required for separating the back skin wound); assay type: in vivo, Male rats; conditions: for Tension: 10 g in 20 ml of peanut oil, 0.05 ml per dose once daily for 10 consecutive days, tension required for separating the wound
Protocol: 2. Wound healing-promoting activity (Method)
Male rats weighing about 180 g-were used in groups of 9 animals. The hair on the back of each rat was clipped with an electric clipper and under ether anesthesia, a wound (20 mm long) was made with a chisel having a 20 mm edge in two positions of the cropped back. A suspension of each test compound (10 g) in 20 ml of peanut oil was applied to the wound in a volume of 0.05 ml per dose once daily for 10 consecutive days. After 10 days, the animal was bled to death by decapitation and the skin of the back was peeled until the wound was separated. The tension (grams) required for separating the wound was measured as an indicator of drug efficacy.

[4] = test system: Wistar strain rats; test: Acute toxicity study; assay type: in vivo; conditions: orally 5 g/kg, observed for 7 days, rats of either sex
Source text: Wistar strain rats of either sex weighing 150 to 200 g were used in groups of 7 animals.

Compound | Ulcer Index (mm) [1] | Inhibition (%) [1] | Inhibition (%) [2] | Tension [3] | death [4] | antiulcer potency among the compounds tested (in words) ([2]; summary of Tables I and II) | wound healing-promoting effect (in words) ([3]; summary of Table III)
CN/C(=N/CCSCc1nc[nH]c1C)NC#N [Cimetidine, reference compound] | 4.02 mm | 60.7% |  |  |  |  | 
NCCCC(=O)N[C@@H](Cc1cnc[nH]1)C(=O)O [Homocarnosine, L-homocarnosine] | 8.81 mm | 13.9% | 6.2% | 218.78 g | No death |  | 
CC(=O)NCCCC(=O)N[C@@H](Cc1cnc[nH]1)C(=O)O [N-Acetyl-L-Homocarnosine, N-acetyl-L-homocarnosine, reference compound] | 9.95 mm | 6.7% | 2.4% | 207.45 g | No death |  | 
(L-homocarnosine)2 zinc salt [(Homocarnosine)2 Zn] | 6.34 mm | 38.0% |  |  |  |  | 
(N-acetyl-L-homocarnosine)2 zinc salt [(N-Acetyl-L-Homocarnosine)2 Zn] | 8.32 mm | 18.7% |  |  |  |  | 
Basic aluminum sucrose sulfate [reference compound] | 8.54 mm | 16.6% | 4.7% |  |  |  | 
Carnosine Zn [reference compound] | 4.61 mm | 54.9% | 39.2% |  |  |  | 
L-homocarnosine aluminum salt [(Homocarnosine)2 AlOH] | 7.76 mm | 24.2% |  |  |  |  | 
L-homocarnosine aluminum salt [(Homocarnosine)3 Al] | 8.24 mm | 19.5% |  |  |  |  | 
L-homocarnosine aluminum salt [Homocarnosine Al(OH)2] | 7.10 mm | 30.6% | 11.2% | 220.28 g |  |  | 
L-homocarnosine zinc salt [Homocarnosine Zn] | 3.85 mm | 62.4% | 46.2% | 249.36 g |  | the most potent | particularly excellent
N-acetyl-L-homocarnosine aluminum salt [(N-Acetyl-L-Homocarnosine)2 Al] | 8.46 mm | 17.3% |  |  |  |  | 
N-acetyl-L-homocarnosine aluminum salt [N-Acetyl-L-Homocarnosine Al(OH)2] | 5.40 mm | 47.2% | 38.7% | 203.57 g |  |  | 
N-acetyl-L-homocarnosine zinc salt [N-Acetyl-L-Homocarnosine Zn] | 7.06 mm | 31.0% | 22.1% | 233.64 g |  |  | 
